Converted amounts (≈) assume the structure as drawn.
Legend:
[1] = test system: HT29 (colon carcinoma cell line); test: in vitro neutral red cytotoxicity assay, HT29; assay type: cell-based; conditions: Homo sapiens, HT-29, HT29 cells, averaged from three experiments, read-out: Cytotoxic activity IC50, HT29
Text: (§1) The in vitro cytotoxic activity was studied by the neutral red cytotoxicity assay [5]. KB (epidermoid carcinoma cell line), MCF7 (hormone-dependent breast carcinoma cell line), A549 (lung carcinoma cell line), CaSki (cervical carcinoma cell line), HCT116 (colon carcinoma cell line), HT29 (colon carcinoma cell line) and non-human fibroblast cell line (MRC 5) were purchased from the American Tissue Culture Collection (ATCC).

[2] = test system: A549 (lung carcinoma cell line); test: in vitro neutral red cytotoxicity assay, A549; assay type: cell-based; conditions: Homo sapiens, A549 cells, averaged from three experiments, read-out: Cytotoxic activity IC50, A549
Text: as §1

[3] = test system: CaSki (cervical carcinoma cell line); test: in vitro neutral red cytotoxicity assay, CaSki; conditions: Homo sapiens, Ca-Ski, read-out: Cytotoxic activity IC50, CaSki
Text: as §1

[4] = test system: MCF7 (hormone-dependent breast carcinoma cell line); test: in vitro neutral red cytotoxicity assay, MCF7; conditions: Homo sapiens, MCF7, read-out: Cytotoxic activity IC50, MCF7
Text: as §1

[5] = in vitro neutral red cytotoxicity assay, MRC5; conditions: human, MRC5 fibroblast cells (normal, non-cancer)
Text: as §1

[6] = test system: HCT116 (colon carcinoma cell line); test: in vitro neutral red cytotoxicity assay, HCT116; conditions: Homo sapiens, HCT-116, read-out: Cytotoxic activity IC50, HCT116
Text: as §1

[7] = test system: KB (epidermoid carcinoma cell line); test: in vitro neutral red cytotoxicity assay, KB; conditions: Homo sapiens, read-out: Cytotoxic activity IC50, KB
Text: as §1

[8] = test system: CaSki (cervical carcinoma cell line)
Text: as §1

[9] = test system: MRC5 fibroblast cell line (non-cancer)
Text: as §1

[10] = test system: KB (epidermoid carcinoma cell line)
Text: as §1

[11] = test system: MCF7 (hormone-dependent breast carcinoma cell line)
Text: as §1

[12] = test system: HCT116 (colon carcinoma cell line)
Text: as §1

| Molecule | IC50 [1] [µg/mL] | IC50 [2] [µg/mL] | IC50 [3] [µg/mL] | IC50 [4] [µg/mL] | IC50 [5] [µg/mL] | IC50 [6] [µg/mL] | IC50 [7] [µg/mL] | Cytotoxic activity IC50, CaSki [8] [µg/mL] | Cytotoxic activity IC50, MRC5 [9] [µg/mL] | Cytotoxic activity IC50, KB [10] [µg/mL] | Cytotoxic activity IC50, MCF7 [11] [µg/mL] | Cytotoxic activity IC50, HCT116 [12] [µg/mL] |
| --- | --- | --- | --- | --- | --- | --- | --- | --- | --- | --- | --- | --- |
| COc1cccc2c1C(=O)c1c(O)c3c(c(O)c1C2=O)C[C@@](O)(C(=O)CO)C[C@@H]3O[C@H]1C[C@H](N)[C@H](O)[C@H](C)O1 [Doxorubicin, reference compound] | 0.33 ± 0.03 (≈ 0.607 µM) | 0.58 ± 0.01 (≈ 1.07 µM) | 0.18 ± 0.06 (≈ 0.331 µM) | 0.05 ± 0.01 (≈ 0.092 µM) | 0.4 ± 0.03 (≈ 0.736 µM) | 0.24 ± 0.04 (≈ 0.442 µM) | – | – | – | – | – | – |
| COc1cc(O)c(C(=O)/C=C/c2ccccc2)c(OC)c1 [Flavokawin B (1), flavokawin B] | – | – | 31.1 ± 1.3 (≈ 109 µM) | 49.3 ± 1.8 (≈ 173 µM) | 17.2 ± 0.5 (≈ 60.5 µM) | 6.4 ± 0.2 (≈ 22.5 µM) | 5.7 ± 0.4 (≈ 20 µM) | – | – | – | – | – |
| COc1cc(O)c(C(=O)/C=C/c2ccccc2)c(O)c1 [Pinostrobin chalcone (3), pinostrobin chalcone] | – | – | 7.7 ± 0.2 (≈ 28.5 µM) | 7.3 ± 0.6 (≈ 27 µM) | 7.9 ± 0.8 (≈ 29.2 µM) | 54.1 ± 4.6 (≈ 200 µM) | 6.2 ± 0.2 (≈ 22.9 µM) | – | – | – | – | – |
| alpinetin [Alpinetin (4)] | – | – | – | – | – | – | – | >100 | > 100 | >100 | > 100 | 39.6 ± 2.0 |

From PMC6259141, “Phytochemical and Cytotoxic Investigations of Alpinia mutica Rhizomes” (Molecules, 2011)
